Measured values taken from US20180228818A1, “PHARMACEUTICAL COMPOSITION COMPRISING ASPRIN, METFORMIN, AND SEROTONIN WITH NON-IONIC SURFACTANT” (ALS MOUNTAIN LLC, priority 2014, published 2018).

Test: Solubilization test of Poloxamer 188/407 to Aspirin in ethanol
Type: physicochemical
Settings: for Amount Dissolved: 10 ml, room temperature (30° C.)
Procedure: (1) 0%,10%, 20%, 30%, 40% (m/v) of Poloxamer 188/407 anhydrous ethanol solution were prepared respectively,10 ml of each solution was added into five sealed centrifuge tubes respectively (each centrifuge tube was numbered accordingly).
(2) Each centrifuge tube was added with adequate amount of Aspirin based on the pre-test data (please refer to Table 1: 0 h data), and shaken to dissolution at room temperature (30° C.).
0.1 g of Aspirin would be added into the tube when complete dissolution was observed, then sealed and continued shaking. In cases which the drug was not dissolved, the previous amount of drug dissolved would be recorded as the maximum amount needed for dissolution.
(4) Dissolution observation was continued until some amount of drug compound could not be dissolved.
(5) The observation of each tube was recorded in Table 1

Solubilization Rate (Poloxamer 188 0%): 0% | Amount Dissolved (Poloxamer 188 0% (m/v) in anhydrous ethanol): 2.50 g | Solubilization Rate (Poloxamer 188 10%): 12% | Amount Dissolved (Poloxamer 188 10% (m/v) in anhydrous ethanol): 2.80 g | Solubilization Rate (Poloxamer 188 20%): 20% | Amount Dissolved (Poloxamer 188 20% (m/v) in anhydrous ethanol): 3.00 g | Solubilization Rate (Poloxamer 188 30%): 24% | Amount Dissolved (Poloxamer 188 30% (m/v) in anhydrous ethanol): 3.10 g | Solubilization Rate (Poloxamer 188 40%): 28% | Amount Dissolved (Poloxamer 188 40% (m/v) in anhydrous ethanol): 3.20 g | solubility of Aspirin (Poloxamer 188 and 407 anhydrous ethanol): increases with Poloxamer concentration | Solubilization Rate (Poloxamer 407 0%): 0% | Amount Dissolved (Poloxamer 407 0% (m/v) in anhydrous ethanol): 2.50 g | Solubilization Rate (Poloxamer 407 10%): 12% | Amount Dissolved (Poloxamer 407 10% (m/v) in anhydrous ethanol): 2.80 g | Solubilization Rate (Poloxamer 407 20%): 20% | Amount Dissolved (Poloxamer 407 20% (m/v) in anhydrous ethanol): 3.00 g | Solubilization Rate (Poloxamer 407 30%): 24% | Amount Dissolved (Poloxamer 407 30% (m/v) in anhydrous ethanol): 3.10 g | Solubilization Rate (Poloxamer 407 40%): 28% | Amount Dissolved (Poloxamer 407 40% (m/v) in anhydrous ethanol): 3.20 g
SMILES: CC(=O)Oc1ccccc1C(=O)O [Aspirin, acetylsalicylic acid]
